From ChEMBL document CHEMBL1158714, “Communiols E-H: new polyketide metabolites from the coprophilous fungus Podospora communis” (J Nat Prod, 2005)
The source made the active and inactive calls.

Legend:
Type in all cases: functional, organism-based
[1] = tested on: Bacillus subtilis; assay: Antimicrobial activity against Bacillus subtilis ATCC 6051 at 200 ug/disk
[2] = tested on: Staphylococcus aureus; assay: Antimicrobial activity against Staphylococcus aureus ATCC 29213 at 200 ug/disk
[3] = tested on: Candida albicans; assay: Antimicrobial activity against Candida albicans ATCC 90029 at 200 ug/disk

Measured: Activity

CC[C@H](O)[C@@H]1C[C@H]2CC[C@H](CO)[C@H]2O1
inactive: all assays above

CC[C@@H]1O[C@H]1C[C@H]1CC=C(CO)[C@H]1O
inactive: all assays above

CC[C@H](O)[C@@H]1C[C@@H](C/C=C/C=O)C(=O)O1
inactive: all assays above

CC[C@H](O)[C@@H]1C[C@H]2CC=C(CO)[C@H]2O1
inactive: all assays above
